The values that follow come from ChEMBL document CHEMBL3091353, “Trisubstituted and tetrasubstituted pyrazolines as a novel class of cell-growth inhibitors in tumor cells with wild type p53” (Bioorg Med Chem, 2013).

The target in data set [1] is E3 ubiquitin-protein ligase Mdm2 (Homo sapiens) (UniProt Q00987). Put plainly: Displacement of carboxyfluorescein-labeled LTFEHYWAQLTS-FAM from human MDM2 (16 to 116) expressed in Escherichia coli C41 at 0.005 to 1 mM by fluorescence anisotropic analysis.
Chain of E3 ubiquitin-protein ligase Mdm2 (Homo sapiens) (Q00987 whole entry, looked up): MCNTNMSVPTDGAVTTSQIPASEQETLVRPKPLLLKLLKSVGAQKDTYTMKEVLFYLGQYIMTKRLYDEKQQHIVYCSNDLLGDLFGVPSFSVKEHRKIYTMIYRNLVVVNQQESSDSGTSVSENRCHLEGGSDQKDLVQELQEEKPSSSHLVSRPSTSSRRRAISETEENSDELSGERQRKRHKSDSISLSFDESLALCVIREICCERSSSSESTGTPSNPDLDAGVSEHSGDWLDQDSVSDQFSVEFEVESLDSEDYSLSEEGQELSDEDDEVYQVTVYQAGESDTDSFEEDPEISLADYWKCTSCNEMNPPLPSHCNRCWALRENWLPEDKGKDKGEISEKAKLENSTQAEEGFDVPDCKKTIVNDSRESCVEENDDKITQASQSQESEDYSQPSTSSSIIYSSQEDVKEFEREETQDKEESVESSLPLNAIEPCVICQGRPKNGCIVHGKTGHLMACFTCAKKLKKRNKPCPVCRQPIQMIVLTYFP
Data set [2] in a line: Cytotoxicity against human H1299 cells after 72 hrs by CellTiterGlo luciferase-based assay. The data set is classed as functional, cell-based. The conditions noted are these: NCI-H1299, 72 h. For orientation: In ATP-based viability assays light output follows the ATP content of the culture.
Data set [3] has as its system HCT-116. The data set can be described thus: Cytotoxicity against human HCT116 cells after 72 hrs by CellTiterGlo luciferase-based assay. The data set is classed as functional, cell-based. As to conditions: HCT-116, 72 h.
In data set [4] the target is E3 ubiquitin-protein ligase Mdm2 (Homo sapiens) (UniProt Q00987). Put plainly: Displacement of carboxyfluorescein-labeled LTFEHYWAQLTS-FAM from MDM2 (unknown origin) (2 to 125) at 0.005 to 1 mM by fluorescence anisotropic analysis.
Data set [5] is described as follows: Ratio of IC50 for human H1299 cells to IC50 for human HCT116 cells. As to conditions: H1299 cells and HCT116 cells.
Data set [6] concerns HCT-116. The data set can be described thus: Cytotoxicity against human HCT116 cells at 20 uM after 72 hrs by CellTiterGlo luciferase-based assay. The data set is classed as functional, cell-based.
In the next data set the test system is NCI-H1299. The data set can be described thus: Cytotoxicity against human H1299 cells at 20 uM after 72 hrs by CellTiterGlo luciferase-based assay. The data set is classed as functional, cell-based.
Data set [7] has as its target Cellular tumor antigen p53 (Homo sapiens) (UniProt P04637). The data set can be described thus: Induction of p53 translocation in human HCT116 cells assessed as protein nuclear to cytosolic ratio at 30 uM after 20 hrs by immunofluorescence analysis. Type of data set: cell-based. As to conditions: HCT-116.

pIC50: −log10 of the molar value. Calls of active or inactive are those of the source. No cut-off for these calls is given here.

Chain of Cellular tumor antigen p53 (Homo sapiens) (P04637 whole entry, looked up): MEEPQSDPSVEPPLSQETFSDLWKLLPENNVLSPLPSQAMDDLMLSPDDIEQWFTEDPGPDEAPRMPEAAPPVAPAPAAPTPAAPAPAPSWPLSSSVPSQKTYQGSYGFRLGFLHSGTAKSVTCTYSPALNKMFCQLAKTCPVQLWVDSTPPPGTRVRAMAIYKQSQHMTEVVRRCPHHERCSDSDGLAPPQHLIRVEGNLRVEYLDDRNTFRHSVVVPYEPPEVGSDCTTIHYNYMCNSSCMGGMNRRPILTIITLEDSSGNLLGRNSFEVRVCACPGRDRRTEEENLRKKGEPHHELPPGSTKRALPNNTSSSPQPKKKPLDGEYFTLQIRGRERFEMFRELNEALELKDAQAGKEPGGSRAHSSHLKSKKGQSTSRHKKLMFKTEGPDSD

For `COc1ccccc1C1=NN(c2ccccc2Cl)C(c2cccc(Cl)c2)C1` (stereo not drawn), the inhibition entry in data set [1] and in data set [4] was “inactive” in each case. Further, the pIC50 (as a rule, the IC50 on a negative log10 scale, so that one unit is a factor of ten) in data set [2] was 4.87; in the data set on HCT-116 [3], 5.72.
`CC(C)(C)C1=NN(c2ccc(Cl)cc2)C(c2ccc3ccccc3c2)C1` (stereo not drawn): the inhibition entry in data set [1] and in data set [4] was “Active” in each case. Also, the pIC50 with HCT-116 [3] is 4.90.
On to `CC(C)(C)C1=NN(c2ccc(Cl)cc2)C(c2ccc(Cl)cc2)C1` (stereo not drawn), for which the inhibition result in data set [1] and in data set [4] was “Active” throughout. Further, the pIC50 in data set [2] is 4.71; in the data set on HCT-116 [3], 4.76.
As for `CC(C)(C)C1=NN(c2ccc(Cl)cc2)C(c2ccc(Cl)cc2)C1C(=O)N1CCOCC1` (stereo not drawn), the inhibition result in data set [1] and in data set [4] was “Active” throughout. The pIC50 in data set [2] was 4.85; with HCT-116 [3] it was 5.46.
As for `CC(C)(C)C1=NN(c2ccc(Cl)cc2)C(c2ccc(Cl)c(Cl)c2)C1` (stereo not drawn), the inhibition result in data set [1] and in data set [4] was “Active” each time. Besides, the values for the pIC50 (in data set [2]; with HCT-116 [3]) were 4.83 and 5.28, respectively.
Turning to `CC(C)(C)C1=NN(c2ccc(Br)cc2)C(c2ccc(Cl)cc2)C1` (stereo not drawn), the inhibition entry in data set [1] and in data set [4] was “Active” each time. Further, the pIC50 is 4.71 in data set [2] and 5.37 in the data set on HCT-116 [3].
Turning to `COc1ccc(C2=N[C@@H](c3ccc(Cl)cc3)[C@@H](c3ccc(Cl)cc3)N2C(=O)N2CCNC(=O)C2)c(OC(C)C)c1` [NUTLIN-3], the pIC50 was 4.83 in data set [2] and 5.80 in the data set on HCT-116 [3]. Further, the selectivity ratio in data set [5] worked out at 9.
With `COc1cccc(C2=NN(c3ccc(Cl)cc3)C(c3cccc(Cl)c3)C2)c1` (stereo not drawn), the inhibition entry in data set [1] and in data set [4] was “inactive” each time. In addition, in the data set on HCT-116 [3], the pIC50 is 4.73.
On to `CCOc1ccccc1C1=NN(c2ccc(Cl)cc2)C(c2ccc(Cl)cc2)C1C(=O)N1CCOCC1` (stereo not drawn), for which the inhibition result in data set [1] and in data set [4] was “inactive” each time. Besides, the pIC50 in data set [2] is 5.08; in the data set on HCT-116 [3] it was 5.10.
For `COc1ccccc1C1=NN(c2cccc(Cl)c2)C(c2cccc(Cl)c2)C1` (stereo not drawn), the inhibition result in data set [1] and in data set [4] was “inactive” in each case. The pIC50 in data set [2] is 4.93; in the data set on HCT-116 [3], 5.80.
Consider `COc1ccc(C2=NN(c3ccccc3Cl)C(c3cccc(Cl)c3)C2)cc1` (stereo not drawn), for which the inhibition result in data set [1] and in data set [4] was “inactive” throughout. Also, the pIC50 is 5.14 in data set [2] and 5.82 in the data set on HCT-116 [3].
Consider `COc1ccc(C2=NN(c3cccc(Cl)c3)C(c3ccccc3Cl)C2)cc1` (stereo not drawn), for which the inhibition result in the data set on HCT-116 [6] and in the data set on NCI-H1299 was “Active” each time.
Take `COc1cccc(C2=NN(c3ccccc3Cl)C(c3ccccc3Cl)C2)c1` (stereo not drawn): the inhibition result in data set [1] and in data set [4] was “inactive” throughout. The pIC50 in data set [2] was 4.87; in the data set on HCT-116 [3], 5.60. Further, the outcome in data set [7] was inactive.
